Measured values reported in patent publication US20220142967A1, “Methods and Compositions for the Treatment of Multiple Sclerosis” (SYMBIONYX PHARMACEUTICALS INC, priority 2018, published 2022).
Structures can show the parent of a compound that is named as a salt.

Assays:
[1] = test system: cultured astrocytes; experiment: RNA-seq of cultured astrocytes compared with MS patient white matter astrocytes (GSE83670); type: cell-based, human; settings: cultured astrocytes vs. LCM-dissected MS patient astrocytes
Procedure: Previously, Waller et al. 2016 (J Neuroimmunol 299:139-146) used laser capture microdissection (LCM) to isolate astrocytes from normal appearing white matter in MS patients and CTL subjects (GEO dataset GSE83670; PMID: 27125112).
cDNA sequencing was performed by the University of Michigan sequencing core facility (50 cycle single end Illumina HiSeq 2000). The FASTX-Toolkit was used to filter reads by removing low quality sequences and initial quality assessments were performed using FastQC. Quality-filtered reads were mapped to the human genome (hg38/GRCh38, UCSC) using tophat2 with default settings, except multi-mapping of reads to multiple genome locations was disallowed (settings: -g 1 —no-coverage-search). The hg38/GRCh38 genome is the most recent release available from UCSC. HTSeq was used to tabulate the number of reads mapping to each genome feature and Cufflinks was used to calculate FPKM estimates and associated confidence intervals. RSeQC was used to assess quality of mapping and calculate the percentage of mapped reads. The negative binomial model (edgeR) was used to evaluate differential expression, with read counts normalized using the weighted trimmed mean of M-values method, and dispersions estimated using the Cox-Reid (CR)-adjusted likelihood approach. Differential expression analyses were performed using genes with detectable expression in at least 1 of 4 samples involved in a given comparison. A gene was considered to have detectable expression in a sample if the count per million mapped reads (cpm) estimate was greater than 0.20 and if the lower bound of the FPKM 95% confidence interval was greater than zero.
FIG. 3 presents in scatterplot and histogram format the results of the study on the astrocytes. Scatterplots (A) and (D) compare fold change (FC) estimates in DMF-treated (A) and IDMF-treated (D) astrocytes to LCM-dissected astrocytes in MS patients and healthy controls (CTLs). Each point represents a protein-coding gene and the light colored ellipses outline the 90% of genes closest to the bivariate mean based upon the Mahalanobis distance. The Spearman rank correlation coefficient estimate is shown (upper-left). The proportion of genes within each quadrant is indicated in the upper margin (P<0.05, Fisher's exact test), wherein the quadrants are defined by a vertical and horizontal line through the “1” in each axis with the proportion corresponding, left to right to the upper left, the upper right, the lower right and lower left quadrants, respectively. Gene set overlap is presented in (B), (C), (E) and (F) wherein genes within each set were altered with a P<0.05 threshold. P-values from the test of overlap significance are shown (bottom margin, Fisher's exact test). […]

[2] = biological target: T1, carboxylesterase 2 (CES2) (Homo sapiens, UniProt O00748); experiment: Carboxylesterase hydrolysis IDMF v DMF; type: in vitro ADME; settings: for remaining parent compound: 1 mg/ml CES2, 37° C., pH 7.4
T1 sequence (O00748 27-559): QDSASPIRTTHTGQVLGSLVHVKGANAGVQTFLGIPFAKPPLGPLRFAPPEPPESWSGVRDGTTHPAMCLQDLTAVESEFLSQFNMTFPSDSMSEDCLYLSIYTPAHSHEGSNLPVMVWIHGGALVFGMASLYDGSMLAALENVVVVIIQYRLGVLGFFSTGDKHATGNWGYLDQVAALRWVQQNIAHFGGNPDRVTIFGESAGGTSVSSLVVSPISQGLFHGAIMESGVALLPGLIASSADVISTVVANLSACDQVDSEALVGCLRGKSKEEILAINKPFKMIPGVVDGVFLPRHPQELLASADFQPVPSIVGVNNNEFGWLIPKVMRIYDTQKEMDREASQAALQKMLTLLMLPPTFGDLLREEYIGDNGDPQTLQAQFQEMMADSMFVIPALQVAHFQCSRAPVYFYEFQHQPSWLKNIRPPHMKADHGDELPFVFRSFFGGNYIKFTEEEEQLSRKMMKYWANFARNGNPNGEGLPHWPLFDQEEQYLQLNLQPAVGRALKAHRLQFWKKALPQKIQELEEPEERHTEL
Procedure: IDMF and DMF were subjected to carboxylesterase hydrolysis. […] 1 mg/ml carboxylesterase 2 (CES2) was added to each solution and the solutions incubated at 37° C. for the time periods set forth in Table 5. […] Isosorbide was quantified using CAD. Mobile phase used for the study: 0.1% Formic acid in water; B: Methanol. Column: Luna C18 4.6 mm×100 mm, 5 u (Phenomenex). Flow rate: 1.0 ml/min.

[3] = test system: human fetal astrocytes; experiment: A1 v A2 marker activation, RNA-seq of H2O2-stimulated astrocytes; type: cell-based; settings: 2.5 μM, 24 hrs, H2O2 (50 μM) stimulated
Procedure: The treated cells were stimulated with H2O2 (50 μM) for 20 min and the RNA extracted 1 day later and sequenced using the Illumina HiSeq 2000 with an average of 39.3 million reads per sample. Reads were mapped to the GHch38/hg38 genome. 13,968 protein-coding genes had detectable expression on average among the 6 samples. Differentially expressed genes (DEGs) were identified using negative binomial models with FDR threshold of <0.10 and fold change (FC) criteria (FC>1.30 or FC<0.77). Gene set enrichment testing was performed using public database annotations. Motif enrichment with respect to DEG up-stream regions was characterized using semiparametric generalized additive logistics models. The overlap between the identified DEGs and MS-associated genes, i.e., genes from MS patients and genes linked to inflammatory (A1) and ischemic (A2) astrogliosis.

[4] = test system: MS; settings: MS patients, oral therapy; cited from earlier work
[5] = test system: patients with relapsing remitting MS (RRMS); settings: cited from earlier work
[6] = test system: human fetal astrocytes derived from cerebral cortex; experiment: Comparative RT-PCR evaluation of selected genes in astrocytes; type: cell-based
Procedure: (§1) Experiments were performed using human fetal astrocytes derived from cerebral cortex (cat. no. 882A-05f; Cell Applications, Sant Diego, Calif.). Cells were grown to subconfluence in human astrocyte growth medium (cat. no. 820-500, Cell Applications). […] Test materials were added to subconfluent cultures at a concentration of 2.5 μM and cells were incubated for 24 hours.
(§2) RNA was extracted following the incubation period using the RNAeasy Mini Plus kit (Qiagen, Hilden, Germany) and robotic Qiacube Connect station (Qiagen). Samples were shipped on dry ice to the Thermo Fisher Microarray Research Services Laboratory (Santa Clara, Calif.) for transcriptome analysis. RNA quality analysis was performed upon sample receipt using the NanoDrop Lite (Thermo Fisher Scientific, Waltham, Mass.). All samples had 260/280 nm absorbance ratios higher than 1.90, consistent with high-purity RNA.
The expression of selected genes was further evaluated using RT-PCR. cDNA was prepared using the AzuraQuant cDNA kit (Azura Genomics, Raynham, Mass.) and PCR reactions were performed using the BioRad iCycler iQ Detection System with Fast Green qPCR Master Mix—Fluor (Azura Genomics). PCR primers were purchased from Realtimeprimers (Elkins Park, Pa.). The ΔΔCt method [Livak K. J. and Schmittgen T. D. Analysis of relative gene expression data using real-time quantitative PCR and the 2(−Delta Delta C(T)) Method. Methods (San Diego, Calif.) 25(4):402-408, 2001]. was used to estimate fold changes with cycle threshold values normalized based upon the expression of glyceraldehyde-3-phosphate dehydrogenase (GAPDH).

[7] = biological target: T1, carboxylesterase 2 (CES2); experiment: Carboxylesterase hydrolysis IDMF v DRF; type: in vitro ADME; settings: 20 μl of 1 mg/ml CES2, 37° C., pH 7.4
Procedure: 20 μl of 1 mg/ml carboxylesterase 2 (CES2) was added to each solution and the solutions incubated at 37° C. for the time periods set forth in Table 5. […] Although tolerable for normal patients, HES is undesirable and detrimental for those individuals have kidney and/or liver issues

[8] = in vivo; cited from earlier work
[9] = test system: human fetal astrocytes derived from cerebral cortex; experiment: Transcriptome analysis of astrocyte cultures treated with MMF, DRF, IDMF; type: cell-based; settings: 2.5 μM, 24 hours
Procedure: as §1, §2
In follow-up to the study of Example, 1 above, genes associated with multiple sclerosis were identified based upon seven established database sources: (1) the NHGRI-EBI genome-wide association (GWA) study catalogue, (2) the Disease Ontology (DO) database, (3) the DisGeNET (curated) database, (4) the DisGeNET (BeFree), (5) MalaCards, (6) the Medical Subject Heading (MESH) database and the KEGG Database. The impact on gene expression of IDMF, MMF and DRF on the key overlapping MS-associated genes was assessed.
The specific data for four of the key NFR2 target genes associated with antioxidant and anti-inflammatory effects is presented in FIGS. 7(A) thru 7(D).
Both TNFAIP3 and NFKBIA encode inhibitory proteins that suppress the NF-KB pathway. Specifically, TNFAIP3 encodes a deubiquitinating enzyme previously linked to MS by genetic association studies: a TNFAIP3 protein abundance is increased in white matter and cortical lesion astrocytes from MS patient brains. Similarly, NFKBIA (IκBα) encodes an NF-KB inhibitor for which promoter polymorphisms have been associated with MS and abundance of this protein is prominent in macrophage nuclei of MS plaques undergoing active demyelination. ICAM1 encodes an endothelial adhesion molecule that promotes leucocyte extravasation and is associated with the initiation and progression of inflammation as well as the targeting of inflammation in the central nervous system (CNS). FIGS. 9(A), 9(B) and 9(C) show the specific data for these three genes.
Genetic variants of IFR has been associated with MS and some MS treatments such as glatiramer acetate block cytokine-stimulated IRF1 up-regulation. An assessment was undertaken to assess the relative impact of fumarate esters, namely MMF, DRF and IDMF on IFR motif enrichment.

[10] = test system: patients with Relapsing-Remitting Multiple Sclerosis; settings: cited from earlier work
[11] = DEFINE and CONFIRM phase III trials
[12] = DRF 462 mg BID, 96-week study (EVOLVE-MS-1)

COC(=O)/C=C/C(=O)OC [DMF, Dimethyl fumarate]
correlation of genome-wide expression responses with those observed in MS patients (Spearman r) [1]: 0.23
remaining parent compound ([2]; 0 minutes): 1 mM
remaining parent compound ([2]; 30 minutes): 0.166 mM
remaining parent compound ([2]; 60 minutes): 0.08 mM
remaining parent compound ([2]; 120 minutes): 0.014 mM
time by which essentially all is hydrolyzed ([2]; CES2, 37° C.): ≤ 60 min
fraction not hydrolyzed to MMF ([2]; within thirty minutes): about 17%
ICAM1 expression [3]: no similar activity
expression of genes linked to A1-polarization [3]: tended to increase expression
expression of genes linked to A2-polarization [3]: decreased expression
Disability reduction, % [4]: 38%
Gadolinium enhancement reduction, % [4]: 74-90%
Relapse rate reduction vs. placebo, % [4]: 44-53%
Side effects [4]: Flushing,
T2w lesion reduction, % [4]: 71-85%
flushing, most reported adverse effect [5, 11]: 24-38%
specific gastrointestinal (GI) adverse effects (nausea, vomiting, diarrhea, upper abdominal pain), patients [5, 11]: 7 to 19%
patients who experienced adverse GI effects ([5]; after 1 year, in these trials): 36%
discontinuation of DMF due to GI side effects, patients ([5]; real-world settings): 5-19%

COC(=O)/C=C/C(=O)OCCN1C(=O)CCC1=O [DRF, diroximel fumarate]
OSGIN1 expression ([6]; FIG. 11(B)): suppression
expression of key MS-associated genes (IL-6, ICAM1, MALT1, TNFAIP3, IRF1, CXCL8) ([6]; FIGS. 11(C) through 11(H)): negligible effect
remaining parent compound ([7]; 0 minutes): 1 mM
remaining parent compound ([7]; 15 minutes): .652 mM
remaining parent compound ([7]; 30 minutes): 0.482 mM
remaining parent compound ([7]; 60 minutes): 0.273 mM
remaining parent compound ([7]; 120 minutes): 0.08 mM
RDC-8439 and methanol generated as minor products [8]: < 10%
fraction metabolized to HES and MMF [8]: > 90%
effect on TNFAIP3, NFKBIA and ICAM1 expression [9]: effectively no effect
reduction of number of days with at least moderate GI symptoms ([10]; 5-week study, DRF 462 mg BID as compared to DMF 240 mg BID): 46%
discontinuation due to adverse GI effects, patients [10, 12]: 6.3%
patients who developed adverse GI effects [10, 12]: 30.9%

CCCCCCCCc1ccc(CCC(N)(CO)CO)cc1 [Fingolimod]
Side effects [4]: First dose

C/C(O)=C(\C#N)C(=O)Nc1ccc(C(F)(F)F)cc1 [Teriflunomide]
Side effects [4]: Gl, hair thinning,
